Source: publication PMC8330742, “New benzothieno[2,3-c]pyridines as non-steroidal CYP17 inhibitors: design, synthesis, anticancer screening, apoptosis induction, and in silico ADME profile studies” (Journal of Enzyme Inhibition and Medicinal Chemistry, 2021)

Columns and labels:
KM12 = experiment: NCI-60 SRB screen; format: cell-based, human; settings: Homo sapiens; KM12; single dose 10^−5 M; read-out: Growth inhibition (%)
M14 = experiment: NCI-60 SRB screen; format: cell-based, human; settings: Homo sapiens; M14; single dose 10^−5 M; read-out: Growth inhibition (%)
786-0 = experiment: NCI-60 SRB screen; format: cell-based; settings: Homo sapiens; 786-0; single dose 10^−5 M; read-out: Growth inhibition (%)
SN12C = experiment: NCI-60 SRB screen; format: cell-based, human; settings: Homo sapiens, SN12C; SN 12 C; single dose 10^−5 M; read-out: Growth inhibition (%)
K-562 = experiment: NCI-60 SRB screen; format: cell-based, human; settings: Homo sapiens, K562; K-562; single dose 10^−5 M; read-out: Growth inhibition (%)
NCI-H23 = experiment: NCI-60 SRB screen; format: cell-based, human; settings: Homo sapiens; NCI-H23; single dose 10^−5 M; read-out: Growth inhibition (%)
IGROV1 = experiment: NCI-60 SRB screen; format: cell-based, human; settings: Homo sapiens, IGROV-1; IGROV1; single dose 10^−5 M; read-out: Growth inhibition (%)
LOX IMVI = experiment: NCI-60 SRB screen; format: cell-based, human; settings: Homo sapiens, single dose 10^−5 M, read-out: Growth inhibition (%)
A549/ATCC = experiment: NCI-60 SRB screen; format: cell-based, human; settings: Homo sapiens, single dose 10^−5 M, read-out: Growth inhibition (%)
NCI-H460 = experiment: NCI-60 SRB screen; format: cell-based, human; settings: Homo sapiens; NCI-H460; single dose 10^−5 M; read-out: Growth inhibition (%)
UACC-257 = experiment: NCI-60 SRB screen; format: cell-based, human; settings: Homo sapiens, UACC-257; UACC-275 (so in the source); single dose 10^−5 M; read-out: Growth inhibition (%)
HOP-62 = experiment: NCI-60 SRB screen; format: cell-based, human; settings: Homo sapiens; HOP-62; single dose 10^−5 M; read-out: Growth inhibition (%)
UO-31 = experiment: NCI-60 SRB screen; format: cell-based, human; settings: Homo sapiens; UO-31; single dose 10^−5 M; read-out: Growth inhibition (%)
SK-MEL-28 = experiment: NCI-60 SRB screen; format: cell-based; settings: Homo sapiens; SK-MEL-28; single dose 10^−5 M; read-out: Growth inhibition (%)
HCC-2998 = experiment: NCI-60 SRB screen; format: cell-based, human; settings: Homo sapiens; HCC-2998; single dose 10^−5 M; read-out: Growth inhibition (%)
OVCAR-4 = experiment: NCI-60 SRB screen; format: cell-based, human; settings: Homo sapiens; OVCAR-4; single dose 10^−5 M; read-out: Growth inhibition (%)
HCT-15 = experiment: NCI-60 SRB screen; format: cell-based, human; settings: Homo sapiens; HCT-15; single dose 10^−5 M; read-out: Growth inhibition (%)
NCI/ADR-RES = experiment: NCI-60 SRB screen; format: cell-based, human; settings: Homo sapiens, single dose 10^−5 M, read-out: Growth inhibition (%)
ACHN = experiment: NCI-60 SRB screen; format: cell-based; settings: Homo sapiens, single dose 10^−5 M, read-out: Growth inhibition (%)
MDA-MB-435 = experiment: NCI-60 SRB screen; format: cell-based; settings: Homo sapiens, MDA-MB-435, read-out: Growth inhibition (%)
HCT-116 = experiment: NCI-60 SRB screen; format: cell-based, human; settings: Homo sapiens; HCT-116; single dose 10^−5 M; read-out: Growth inhibition (%)
HL-60(TB) = experiment: NCI-60 SRB screen; format: cell-based, human; settings: Homo sapiens; HL-60 (TB); single dose 10^−5 M; read-out: Growth inhibition (%)
HT-29 = experiment: NCI-60 SRB screen; format: cell-based; settings: Homo sapiens; HT-29; single dose 10^−5 M; read-out: Growth inhibition (%)
[1] = tested on: panel of 60 cancer cell lines; experiment: NCI-60 SRB screen, mean or range over the panel; format: cell-based, human; settings: Homo sapiens; mean over the cell lines; single dose 10^−5 M; read-out: Mean growth inhibition (%)
CAKI-1 = experiment: NCI-60 SRB screen; format: cell-based, human; settings: Homo sapiens; CAKI-1; single dose 10^−5 M; read-out: Growth inhibition (%)
SF-295 = experiment: NCI-60 SRB screen; format: cell-based, human; settings: Homo sapiens; SF-295; single dose 10^−5 M; read-out: Growth inhibition (%)
MALME-3M = experiment: NCI-60 SRB screen; format: cell-based, human; settings: Homo sapiens, single dose 10^−5 M, read-out: Growth inhibition (%)
HOP-92 = experiment: NCI-60 SRB screen; format: cell-based, human; settings: Homo sapiens; HOP-92; single dose 10^−5 M; read-out: Growth inhibition (%)
UACC-62 = experiment: NCI-60 SRB screen; format: cell-based, human; settings: Homo sapiens; UACC-62; single dose 10^−5 M; read-out: Growth inhibition (%)
COLO 205 = experiment: NCI-60 SRB screen; format: cell-based, human; settings: Homo sapiens; COLO 205; single dose 10^−5 M; read-out: Growth inhibition (%)
NCI-H522 = experiment: NCI-60 SRB screen; format: cell-based, human; settings: Homo sapiens; NCI-H522; single dose 10^−5 M; read-out: Growth inhibition (%)
MOLT-4 = experiment: NCI-60 SRB screen; format: cell-based; settings: Homo sapiens; MOLT-4; single dose 10^−5 M; read-out: Growth inhibition (%)
NCI-H322M = experiment: NCI-60 SRB screen; format: cell-based, human; settings: Homo sapiens, single dose 10^−5 M, read-out: Growth inhibition (%)
TK-10 = experiment: NCI-60 SRB screen; format: cell-based, human; settings: Homo sapiens; TK-10; single dose 10^−5 M; read-out: Growth inhibition (%)
SK-MEL-2 = experiment: NCI-60 SRB screen; format: cell-based, human; settings: Homo sapiens; SK-MEL-2; single dose 10^−5 M; read-out: Growth inhibition (%)
RXF 393 = experiment: NCI-60 SRB screen; format: cell-based, human; settings: Homo sapiens; RXF 393; single dose 10^−5 M; read-out: Growth inhibition (%)
OVCAR-8 = experiment: NCI-60 SRB screen; format: cell-based, human; settings: Homo sapiens; OVCAR-8; single dose 10^−5 M; read-out: Growth inhibition (%)
SR = experiment: NCI-60 SRB screen; format: cell-based; settings: Homo sapiens, single dose 10^−5 M, read-out: Growth inhibition (%)
SW-620 = experiment: NCI-60 SRB screen; format: cell-based; settings: Homo sapiens; SW-620; single dose 10^−5 M; read-out: Growth inhibition (%)
EKVX = experiment: NCI-60 SRB screen; format: cell-based, human; settings: Homo sapiens, single dose 10^−5 M, read-out: Growth inhibition (%)
SF-268 = experiment: NCI-60 SRB screen; format: cell-based, human; settings: Homo sapiens; SF-268; single dose 10^−5 M; read-out: Growth inhibition (%)
NCI-H226 = experiment: NCI-60 SRB screen; format: cell-based, human; settings: Homo sapiens; NCI-H226; single dose 10^−5 M; read-out: Growth inhibition (%)
CCRF-CEM = experiment: NCI-60 SRB screen; format: cell-based; settings: Homo sapiens, single dose 10^−5 M, read-out: Growth inhibition (%)
SK-MEL-5 = experiment: NCI-60 SRB screen; format: cell-based, human; settings: Homo sapiens; SK-MEL-5; single dose 10^−5 M; read-out: Growth inhibition (%)
OVCAR-3 = experiment: NCI-60 SRB screen; format: cell-based, human; settings: Homo sapiens; OVCAR-3; single dose 10^−5 M; read-out: Growth inhibition (%)

In the case of `O=C1NC(c2cccc([N+](=O)[O-])c2)c2sc3c(F)cccc3c2C1Cl` (stereo not drawn) [Compound 4d, 4-Chloro-8-fluoro-1-(3-nitrophenyl)-1,2-dihydro[1]benzothieno[2,3-c] pyridine-3(4H)-one], the inhibition at 10 µM (KM12) was -5.21%, the inhibition at 10 µM (M14) was -0.99% and the inhibition at 10 µM (786-0) was -11.2%. The inhibition at 10 µM (SN12C) was 2.95%, the inhibition at 10 µM (K-562) was 23% and the inhibition at 10 µM (NCI-H23) was -1.19%. The inhibition at 10 µM (IGROV1) was 22.8%, the inhibition at 10 µM (LOX IMVI) was 5.22% and the inhibition at 10 µM (A549/ATCC) was -2.89%. For the same compound, the inhibition at 10 µM (NCI-H460) was 1.43%, the inhibition at 10 µM (UACC-257) was -15.8% and the inhibition at 10 µM (HOP-62) was 1.22%. The inhibition at 10 µM (UO-31) was 34.7%, the inhibition at 10 µM (SK-MEL-28) was -10.5% and the inhibition at 10 µM (HCC-2998) was -15.9%. It also gave an inhibition at 10 µM (OVCAR-4) of 1.96%, an inhibition at 10 µM (HCT-15) of 1.31% and an inhibition at 10 µM (NCI/ADR-RES) of -8.05%. The inhibition at 10 µM (ACHN) was 6.28%, the inhibition at 10 µM (MDA-MB-435) was -7.63% and the inhibition at 10 µM (HCT-116) was 9.54%. The inhibition at 10 µM (HL-60(TB)) was -16.8%, the inhibition at 10 µM (HT-29) was 2.3% and the inhibition at 10 µM [1] was 0.15%. It also gave an inhibition at 10 µM (CAKI-1) of 27.4%, an inhibition at 10 µM (SF-295) of -3.1% and an inhibition at 10 µM (MALME-3M) of 4.62%. It also gave an inhibition at 10 µM (HOP-92) of 5.89%, an inhibition at 10 µM (UACC-62) of 10.4% and an inhibition at 10 µM (COLO 205) of -17.2%. It also gave an inhibition at 10 µM (NCI-H522) of 8.55%, an inhibition at 10 µM (MOLT-4) of 9.18% and an inhibition at 10 µM (NCI-H322M) of -0.93%. The inhibition at 10 µM (TK-10) was -40.7%, the inhibition at 10 µM (SK-MEL-2) was -26.1% and the inhibition at 10 µM (RXF 393) was -18.1%. It also gave an inhibition at 10 µM (OVCAR-8) of -1.82%, an inhibition at 10 µM (SR) of 11.4% and an inhibition at 10 µM (SW-620) of 3.43%. It also gave an inhibition at 10 µM (EKVX) of 0.87%, an inhibition at 10 µM (SF-268) of 6.94% and an inhibition at 10 µM (NCI-H226) of 5.26%. The inhibition at 10 µM (CCRF-CEM) was 1.99%, the inhibition at 10 µM (SK-MEL-5) was 4.05% and the inhibition at 10 µM (OVCAR-3) was -4.91%.
